From the Kinase Knowledgebase extract (Sharma et al. 2016)

Target: PIK3CD (Human) (UniProt O00329)
Assay: Assessment of PIK3CD Kinase Activity

Sequence of PIK3CD (Human) (O00329 whole entry, looked up): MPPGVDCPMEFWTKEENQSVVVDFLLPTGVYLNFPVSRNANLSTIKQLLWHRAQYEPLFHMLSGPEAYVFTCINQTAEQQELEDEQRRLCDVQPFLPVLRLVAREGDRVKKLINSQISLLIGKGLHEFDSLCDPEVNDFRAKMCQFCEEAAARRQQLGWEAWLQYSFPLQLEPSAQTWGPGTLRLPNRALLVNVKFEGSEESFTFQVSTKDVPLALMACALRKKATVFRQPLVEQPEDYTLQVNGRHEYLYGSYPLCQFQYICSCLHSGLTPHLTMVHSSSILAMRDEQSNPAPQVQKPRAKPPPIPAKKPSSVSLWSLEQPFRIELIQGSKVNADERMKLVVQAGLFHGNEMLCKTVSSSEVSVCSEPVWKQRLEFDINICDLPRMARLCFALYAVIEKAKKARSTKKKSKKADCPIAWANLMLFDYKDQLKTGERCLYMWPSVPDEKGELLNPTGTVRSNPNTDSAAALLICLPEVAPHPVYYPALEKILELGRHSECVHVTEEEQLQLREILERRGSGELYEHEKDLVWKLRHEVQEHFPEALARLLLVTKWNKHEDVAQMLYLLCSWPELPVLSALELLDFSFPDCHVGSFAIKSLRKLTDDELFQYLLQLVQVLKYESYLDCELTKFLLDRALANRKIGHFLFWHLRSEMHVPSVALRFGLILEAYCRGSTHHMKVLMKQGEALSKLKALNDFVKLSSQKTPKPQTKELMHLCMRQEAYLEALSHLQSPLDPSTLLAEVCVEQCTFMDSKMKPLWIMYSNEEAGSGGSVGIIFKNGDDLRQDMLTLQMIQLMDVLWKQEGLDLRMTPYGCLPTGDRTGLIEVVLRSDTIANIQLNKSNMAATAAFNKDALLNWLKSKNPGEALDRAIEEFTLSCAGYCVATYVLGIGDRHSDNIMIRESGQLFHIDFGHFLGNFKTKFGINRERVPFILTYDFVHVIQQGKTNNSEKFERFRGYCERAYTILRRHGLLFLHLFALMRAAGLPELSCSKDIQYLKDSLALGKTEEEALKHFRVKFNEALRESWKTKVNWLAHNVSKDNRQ

Row | SMILES | IC50 [nM]
1 | CCOc1c(C(C)Nc2ncnc3[nH]cnc23)cc(Cl)c(C#N)c1C1CN(C(C)C)C1 (stereo not given) | < 50
2 | COc1c(C(C)Nc2ncnc3[nH]cnc23)cc(Cl)c(C)c1-c1cnn(C2(CC#N)CC(C#N)C2)c1 (stereo not given) | < 50
3 | COc1c(-c2ccc(NC(C)=O)cc2)cc(Cl)cc1C(C)Nc1ncnc2[nH]cnc12 (stereo not given) | 50 to 100
4 | COc1c(C(C)Nc2ncnc3[nH]cnc23)cc(Cl)c(C)c1-c1ccc(C(=O)N2CCOCC2)c(F)c1 (stereo not given) | < 50
5 | COc1c(C(C)Nc2ncnc3[nH]cnc23)cc(Cl)c(C)c1C1CC(=O)N(C)C1 (stereo not given) | < 50
6 | COc1c(-c2ccnn2C)cc(Cl)cc1C(C)Nc1ncnc2[nH]cnc12 (stereo not given) | 50 to 100
7 | COc1c(-c2cncnc2)cc(Cl)cc1C(C)Nc1ncnc2[nH]cnc12 (stereo not given) | 50 to 100
8 | COc1c(C(C)Nc2ncnc3[nH]cnc23)cc(Cl)c(C)c1-c1cncc(C#N)c1 (stereo not given) | < 50
9 | COc1c(C(C)Nc2ncnc3[nH]cnc23)cc(Cl)c(C)c1-c1ccc(C(=O)N2CCC(O)CC2)c(F)c1 (stereo not given) | < 50
10 | COc1c(C(C)Nc2ncnc3[nH]cnc23)cc(Cl)c(C)c1-c1ccc(C(=O)NC2CCC2)c(F)c1 (stereo not given) | < 50
11 | COc1c(-c2ccncc2)cc(Cl)cc1C(C)Nc1ncnc2[nH]cnc12 (stereo not given) | 50 to 100
12 | CNC(=O)c1ccc(-c2c(C)c(Cl)cc(C(C)Nc3ncnc4[nH]cnc34)c2OC)cc1F (stereo not given) | < 50
13 | COc1ncc(-c2cc(Cl)cc(C(C)Nc3ncnc4[nH]cnc34)c2OC)cn1 (stereo not given) | 100 to 250
14 | COc1c(C(C)Nc2ncnc3[nH]cnc23)cc(Cl)c(F)c1C1=CCN(S(C)(=O)=O)CC1 (stereo not given) | < 50
15 | COc1c(C(C)Nc2ncnc3[nH]cnc23)cc(Cl)c(C)c1C1CNC(=O)C1 (stereo not given) | < 50
